This note sets out measurements from publication PMC9030254, “Target Hopping from Protein Kinases to PXR: Identification of Small-Molecule Protein Kinase Inhibitors as Selective Modulators of Pregnane X Receptor from TüKIC Library” (Cells, 2022).

Common to all, as to assay: Kinase profiling
Common to all, as to format: biochemical

Assay [1] deals with T1, MST1 (Homo sapiens, UniProt Q13043).
T1 construct: purchased ProQinase (Freiburg, Germany)
T1 sequence (Q13043 1-487): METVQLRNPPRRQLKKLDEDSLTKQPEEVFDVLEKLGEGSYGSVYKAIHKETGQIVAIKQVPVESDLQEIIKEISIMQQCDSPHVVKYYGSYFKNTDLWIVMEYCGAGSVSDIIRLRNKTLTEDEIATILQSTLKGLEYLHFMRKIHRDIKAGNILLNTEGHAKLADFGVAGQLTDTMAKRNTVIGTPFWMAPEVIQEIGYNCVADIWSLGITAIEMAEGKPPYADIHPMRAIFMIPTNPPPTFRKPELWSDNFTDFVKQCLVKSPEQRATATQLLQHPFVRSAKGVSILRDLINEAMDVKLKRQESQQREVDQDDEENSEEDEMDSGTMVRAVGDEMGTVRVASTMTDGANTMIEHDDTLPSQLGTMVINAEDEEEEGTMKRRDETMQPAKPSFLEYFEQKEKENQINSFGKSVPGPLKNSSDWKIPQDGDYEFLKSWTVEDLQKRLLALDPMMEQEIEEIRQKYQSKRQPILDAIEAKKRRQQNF
How it is done:
(§1) The analysis was performed by ProQinase (Freiburg, Germany).

Assay [2] concerns the target T2, MAP4K5 (Homo sapiens, UniProt Q9Y4K4).
T2 construct: purchased ProQinase (Freiburg, Germany)
How it is done:
as §1

Assay [3] addresses T3, FGFR4 (Homo sapiens, UniProt P22455).
T3 construct: purchased ProQinase (Freiburg, Germany)
The procedure: as §1

Assay [4] has as its target T4, TAOK3 (Homo sapiens, UniProt Q9H2K8).
T4 construct: purchased ProQinase (Freiburg, Germany)
T4 sequence (Q9H2K8 1-898): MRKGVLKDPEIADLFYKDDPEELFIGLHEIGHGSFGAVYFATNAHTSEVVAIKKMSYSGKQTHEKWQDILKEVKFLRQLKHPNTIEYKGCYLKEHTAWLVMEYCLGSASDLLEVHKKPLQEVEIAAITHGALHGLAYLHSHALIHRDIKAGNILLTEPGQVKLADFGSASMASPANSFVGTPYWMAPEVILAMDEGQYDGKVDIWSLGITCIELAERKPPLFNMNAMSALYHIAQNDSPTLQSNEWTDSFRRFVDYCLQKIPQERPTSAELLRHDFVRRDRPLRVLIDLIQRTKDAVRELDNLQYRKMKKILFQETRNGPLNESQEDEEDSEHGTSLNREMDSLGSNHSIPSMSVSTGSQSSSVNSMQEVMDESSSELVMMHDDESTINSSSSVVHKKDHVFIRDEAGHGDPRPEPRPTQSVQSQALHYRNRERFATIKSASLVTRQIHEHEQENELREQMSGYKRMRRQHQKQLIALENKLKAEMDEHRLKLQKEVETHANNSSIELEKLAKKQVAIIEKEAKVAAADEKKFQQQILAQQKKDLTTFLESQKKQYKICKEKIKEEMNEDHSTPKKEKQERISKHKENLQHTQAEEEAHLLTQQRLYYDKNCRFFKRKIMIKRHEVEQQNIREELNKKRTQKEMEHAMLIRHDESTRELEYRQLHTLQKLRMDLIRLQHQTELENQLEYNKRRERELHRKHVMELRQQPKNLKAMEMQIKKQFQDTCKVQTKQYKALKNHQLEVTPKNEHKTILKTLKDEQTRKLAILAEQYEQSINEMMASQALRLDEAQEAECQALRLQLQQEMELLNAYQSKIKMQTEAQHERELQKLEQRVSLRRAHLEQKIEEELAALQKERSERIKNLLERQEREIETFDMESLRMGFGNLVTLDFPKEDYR
The procedure:
as §1

For assay [5], the target named is T5, CDK16/CycY (Homo sapiens, UniProt Q00536).
T5 construct: purchased ProQinase (Freiburg, Germany)
T5 sequence (Q00536 whole entry): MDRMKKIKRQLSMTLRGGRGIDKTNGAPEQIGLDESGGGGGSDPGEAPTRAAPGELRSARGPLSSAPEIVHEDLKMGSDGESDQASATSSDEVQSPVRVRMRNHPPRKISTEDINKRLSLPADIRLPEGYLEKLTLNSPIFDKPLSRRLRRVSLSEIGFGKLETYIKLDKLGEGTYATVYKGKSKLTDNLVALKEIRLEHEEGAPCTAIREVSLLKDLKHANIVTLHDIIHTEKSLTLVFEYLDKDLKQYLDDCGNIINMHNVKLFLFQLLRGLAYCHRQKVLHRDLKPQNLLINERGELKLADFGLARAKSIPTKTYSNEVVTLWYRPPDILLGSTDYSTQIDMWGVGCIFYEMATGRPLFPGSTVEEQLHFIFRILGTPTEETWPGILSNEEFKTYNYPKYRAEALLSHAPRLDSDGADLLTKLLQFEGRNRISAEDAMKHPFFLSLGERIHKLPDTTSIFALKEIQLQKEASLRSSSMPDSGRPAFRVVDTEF
T5 sequence (Q8ND76 whole entry partner): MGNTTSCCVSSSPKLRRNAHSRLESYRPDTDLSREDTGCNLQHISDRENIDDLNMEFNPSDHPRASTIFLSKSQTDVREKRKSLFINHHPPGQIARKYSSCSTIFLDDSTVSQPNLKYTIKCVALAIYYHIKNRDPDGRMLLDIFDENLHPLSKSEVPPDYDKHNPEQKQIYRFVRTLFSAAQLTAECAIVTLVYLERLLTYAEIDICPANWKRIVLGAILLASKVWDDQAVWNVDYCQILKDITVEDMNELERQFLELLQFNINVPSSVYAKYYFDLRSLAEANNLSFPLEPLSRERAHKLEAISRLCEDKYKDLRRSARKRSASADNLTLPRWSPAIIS
The procedure:
as §1

For assay [6], the target named is T6, PLK3 (Homo sapiens, UniProt Q9H4B4).
T6 construct: purchased ProQinase (Freiburg, Germany)
T6 sequence (Q9H4B4 whole entry): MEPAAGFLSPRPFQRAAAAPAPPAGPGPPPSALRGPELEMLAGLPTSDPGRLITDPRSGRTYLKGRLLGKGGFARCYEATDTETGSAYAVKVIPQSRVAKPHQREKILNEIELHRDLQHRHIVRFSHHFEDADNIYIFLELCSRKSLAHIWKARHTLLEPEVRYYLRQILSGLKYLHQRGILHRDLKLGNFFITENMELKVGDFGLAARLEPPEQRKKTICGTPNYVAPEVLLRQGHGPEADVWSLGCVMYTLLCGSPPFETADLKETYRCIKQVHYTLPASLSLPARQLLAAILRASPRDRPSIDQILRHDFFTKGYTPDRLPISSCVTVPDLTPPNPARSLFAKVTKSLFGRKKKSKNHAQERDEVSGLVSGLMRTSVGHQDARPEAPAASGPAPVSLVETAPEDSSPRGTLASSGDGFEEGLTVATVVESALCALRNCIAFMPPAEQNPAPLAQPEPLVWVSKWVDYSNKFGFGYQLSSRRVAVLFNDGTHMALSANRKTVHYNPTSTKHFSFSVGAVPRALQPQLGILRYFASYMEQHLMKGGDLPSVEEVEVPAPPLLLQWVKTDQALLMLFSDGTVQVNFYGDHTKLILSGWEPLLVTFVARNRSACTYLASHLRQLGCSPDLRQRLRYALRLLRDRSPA
How it is done:
as §1

For assay [7], the target named is T7, SYK (Homo sapiens, UniProt P43405).
T7 construct: purchased ProQinase (Freiburg, Germany)
How it is done: as §1

The target of assay [8] is T8, LTK (Homo sapiens, UniProt P29376).
T8 construct: purchased ProQinase (Freiburg, Germany)
T8 sequence (P29376 17-864): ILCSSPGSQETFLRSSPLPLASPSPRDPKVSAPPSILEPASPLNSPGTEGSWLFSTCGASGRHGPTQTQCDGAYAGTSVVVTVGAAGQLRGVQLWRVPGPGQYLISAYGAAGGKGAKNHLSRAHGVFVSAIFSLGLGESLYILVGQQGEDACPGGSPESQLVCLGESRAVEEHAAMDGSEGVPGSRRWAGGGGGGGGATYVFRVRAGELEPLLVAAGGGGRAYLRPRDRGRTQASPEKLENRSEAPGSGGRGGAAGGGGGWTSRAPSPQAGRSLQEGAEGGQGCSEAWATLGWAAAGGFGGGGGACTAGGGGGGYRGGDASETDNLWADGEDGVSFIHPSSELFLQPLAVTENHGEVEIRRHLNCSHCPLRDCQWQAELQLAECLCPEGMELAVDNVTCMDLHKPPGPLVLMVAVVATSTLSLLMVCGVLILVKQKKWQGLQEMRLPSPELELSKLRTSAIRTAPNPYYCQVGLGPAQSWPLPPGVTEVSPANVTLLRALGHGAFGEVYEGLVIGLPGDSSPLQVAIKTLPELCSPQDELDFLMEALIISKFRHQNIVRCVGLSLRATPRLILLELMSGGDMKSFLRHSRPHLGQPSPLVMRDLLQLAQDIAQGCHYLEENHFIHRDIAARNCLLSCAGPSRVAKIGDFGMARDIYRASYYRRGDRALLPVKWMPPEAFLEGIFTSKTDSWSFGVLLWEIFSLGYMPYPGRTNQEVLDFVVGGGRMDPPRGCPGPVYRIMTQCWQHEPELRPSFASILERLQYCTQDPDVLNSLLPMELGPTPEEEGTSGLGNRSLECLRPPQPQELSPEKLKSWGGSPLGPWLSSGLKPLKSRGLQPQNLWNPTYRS
The procedure: as §1

The target in assay [9] is T9, RIPK5 (Homo sapiens, UniProt Q6XUX3).
T9 construct: purchased ProQinase (Freiburg, Germany)
T9 sequence (Q6XUX3 1-929): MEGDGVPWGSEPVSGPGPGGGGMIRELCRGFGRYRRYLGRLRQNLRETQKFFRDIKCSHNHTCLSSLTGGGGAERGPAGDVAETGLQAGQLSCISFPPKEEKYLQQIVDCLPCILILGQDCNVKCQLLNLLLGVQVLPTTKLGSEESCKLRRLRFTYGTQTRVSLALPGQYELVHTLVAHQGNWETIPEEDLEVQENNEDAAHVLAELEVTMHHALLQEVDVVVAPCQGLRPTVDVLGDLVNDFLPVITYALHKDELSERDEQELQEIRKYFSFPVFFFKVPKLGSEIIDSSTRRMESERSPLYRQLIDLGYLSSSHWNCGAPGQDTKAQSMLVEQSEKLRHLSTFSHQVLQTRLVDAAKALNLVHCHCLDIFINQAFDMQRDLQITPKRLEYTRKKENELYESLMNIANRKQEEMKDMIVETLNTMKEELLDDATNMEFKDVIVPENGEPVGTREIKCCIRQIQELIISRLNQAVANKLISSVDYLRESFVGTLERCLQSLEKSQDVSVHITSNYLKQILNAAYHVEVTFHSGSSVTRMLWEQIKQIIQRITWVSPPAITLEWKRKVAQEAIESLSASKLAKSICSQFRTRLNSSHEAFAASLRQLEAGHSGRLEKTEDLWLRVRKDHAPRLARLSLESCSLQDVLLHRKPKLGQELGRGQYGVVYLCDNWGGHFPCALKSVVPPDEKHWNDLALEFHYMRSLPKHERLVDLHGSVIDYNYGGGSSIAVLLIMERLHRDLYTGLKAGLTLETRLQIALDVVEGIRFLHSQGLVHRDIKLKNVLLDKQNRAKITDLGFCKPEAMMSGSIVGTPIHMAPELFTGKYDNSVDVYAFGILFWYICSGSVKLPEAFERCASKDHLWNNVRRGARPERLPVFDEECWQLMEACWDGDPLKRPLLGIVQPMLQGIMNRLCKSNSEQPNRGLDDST
The procedure: as §1

The target in assay [10] is T10, CHK2 (Homo sapiens, UniProt O96017).
T10 construct: purchased ProQinase (Freiburg, Germany)
T10 sequence (O96017 whole entry): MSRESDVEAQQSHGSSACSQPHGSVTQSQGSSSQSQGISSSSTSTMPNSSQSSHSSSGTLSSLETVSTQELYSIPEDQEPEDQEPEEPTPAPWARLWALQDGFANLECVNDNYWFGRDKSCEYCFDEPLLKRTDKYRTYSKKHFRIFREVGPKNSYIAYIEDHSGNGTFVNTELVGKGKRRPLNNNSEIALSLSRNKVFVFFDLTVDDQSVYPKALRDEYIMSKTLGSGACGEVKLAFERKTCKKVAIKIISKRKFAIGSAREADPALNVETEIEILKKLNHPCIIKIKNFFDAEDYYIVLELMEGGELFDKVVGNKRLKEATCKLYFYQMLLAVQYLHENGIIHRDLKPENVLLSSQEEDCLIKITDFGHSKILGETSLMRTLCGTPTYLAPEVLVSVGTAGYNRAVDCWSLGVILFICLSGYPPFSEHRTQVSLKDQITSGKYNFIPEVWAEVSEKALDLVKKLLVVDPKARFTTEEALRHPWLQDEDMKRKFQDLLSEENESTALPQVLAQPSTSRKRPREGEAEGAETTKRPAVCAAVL
How it is done:
as §1

T3 sequence (P22455 22-802): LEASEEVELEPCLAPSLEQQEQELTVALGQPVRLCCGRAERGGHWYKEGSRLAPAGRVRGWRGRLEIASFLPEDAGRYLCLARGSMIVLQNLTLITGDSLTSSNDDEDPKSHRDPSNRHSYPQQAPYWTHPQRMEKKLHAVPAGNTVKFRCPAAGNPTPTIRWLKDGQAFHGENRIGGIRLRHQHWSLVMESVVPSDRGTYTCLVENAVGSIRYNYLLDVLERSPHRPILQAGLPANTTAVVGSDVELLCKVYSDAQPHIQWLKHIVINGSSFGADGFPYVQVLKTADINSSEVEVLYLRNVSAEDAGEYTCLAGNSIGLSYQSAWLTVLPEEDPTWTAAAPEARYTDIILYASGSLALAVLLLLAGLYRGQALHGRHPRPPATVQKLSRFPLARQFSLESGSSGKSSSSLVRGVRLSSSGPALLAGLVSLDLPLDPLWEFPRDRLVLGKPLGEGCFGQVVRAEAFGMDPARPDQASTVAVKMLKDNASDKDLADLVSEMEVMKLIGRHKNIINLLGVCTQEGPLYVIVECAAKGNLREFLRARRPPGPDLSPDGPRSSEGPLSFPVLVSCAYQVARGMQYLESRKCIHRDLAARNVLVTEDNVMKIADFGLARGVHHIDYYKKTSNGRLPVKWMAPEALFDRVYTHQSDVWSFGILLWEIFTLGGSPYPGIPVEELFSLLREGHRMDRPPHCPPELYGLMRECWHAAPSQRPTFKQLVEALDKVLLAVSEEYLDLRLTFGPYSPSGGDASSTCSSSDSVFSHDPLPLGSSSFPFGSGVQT
T2 sequence (Q9Y4K4 whole entry): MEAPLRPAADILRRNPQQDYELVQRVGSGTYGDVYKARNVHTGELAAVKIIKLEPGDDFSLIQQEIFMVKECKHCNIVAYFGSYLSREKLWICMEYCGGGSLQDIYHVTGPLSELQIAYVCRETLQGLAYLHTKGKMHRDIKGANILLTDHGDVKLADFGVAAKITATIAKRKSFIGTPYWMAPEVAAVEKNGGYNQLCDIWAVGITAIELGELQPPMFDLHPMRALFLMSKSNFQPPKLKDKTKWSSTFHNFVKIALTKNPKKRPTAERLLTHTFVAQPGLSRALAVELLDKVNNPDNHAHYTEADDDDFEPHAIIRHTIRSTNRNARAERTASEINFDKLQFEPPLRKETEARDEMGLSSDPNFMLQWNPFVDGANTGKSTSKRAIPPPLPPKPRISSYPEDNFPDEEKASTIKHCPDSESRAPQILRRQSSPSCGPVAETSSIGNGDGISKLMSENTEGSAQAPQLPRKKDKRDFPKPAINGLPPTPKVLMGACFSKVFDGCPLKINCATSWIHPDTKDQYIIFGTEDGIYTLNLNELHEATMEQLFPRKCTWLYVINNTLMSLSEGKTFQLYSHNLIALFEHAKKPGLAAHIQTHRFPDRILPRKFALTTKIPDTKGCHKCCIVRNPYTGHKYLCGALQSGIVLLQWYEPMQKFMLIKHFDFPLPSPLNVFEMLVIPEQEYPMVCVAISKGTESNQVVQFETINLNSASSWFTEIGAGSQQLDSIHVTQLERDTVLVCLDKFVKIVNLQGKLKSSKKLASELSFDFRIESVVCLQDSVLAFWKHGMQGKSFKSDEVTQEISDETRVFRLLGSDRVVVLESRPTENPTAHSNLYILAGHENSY

`O=C(Nc1ccc(F)c(Nc2ccc3c(c2)CCCCC3=O)c1)c1cccc(F)c1` [Compound 109]: the Residual activity in [1] (1.0E-05 M) is 98 % of control; in assay [1] (1.0E-06 M), 103 % of control; in assay [2] (1.0E-05 M), 92 % of control; in assay [2] (1.0E-06 M) it was 92 % of control; in [3] (1.0E-05 M) it was 79 % of control; in assay [3] (1.0E-06 M), 90 % of control. Besides, the Residual activity in assay [4] (1.0E-05 M) is reported as 91 % of control; in assay [4] (1.0E-06 M), 99 % of control; in [5] (1.0E-05 M), 100 % of control; in assay [5] (1.0E-06 M), 96 % of control; in assay [6] (1.0E-05 M), 104 % of control; in assay [6] (1.0E-06 M) it was 104 % of control. The Residual activity in [7] (1.0E-05 M) was 94 % of control; in assay [7] (1.0E-06 M), 95 % of control; in assay [8] (1.0E-05 M), 77 % of control; in assay [8] (1.0E-06 M) it was 95 % of control; in assay [9] (1.0E-05 M) it was 100 % of control; in [9] (1.0E-06 M) it was 101 % of control. The figures for the Residual activity in assay [10] (1.0E-05 M) and in [10] (1.0E-06 M) were 74 % of control and 94 % of control, respectively.
With `O=C(Cc1ccccc1)Nc1ccc(F)c(Nc2ccc3c(c2)CCCCC3=O)c1` [Compound 100], the Residual activity is 92 % of control in assay [1] (1.0E-05 M); 102 % of control in assay [1] (1.0E-06 M); 94 % of control in assay [2] (1.0E-05 M); 98 % of control in [2] (1.0E-06 M); 67 % of control in assay [3] (1.0E-05 M); 96 % of control in [3] (1.0E-06 M). Also, the Residual activity in assay [4] (1.0E-05 M) is on record as 98 % of control; in assay [4] (1.0E-06 M), 105 % of control; in [5] (1.0E-05 M), 101 % of control; in [5] (1.0E-06 M) it was 99 % of control; in [6] (1.0E-05 M), 114 % of control; in assay [6] (1.0E-06 M), 115 % of control. For the same molecule, the Residual activity is given as 89 % of control in [7] (1.0E-05 M); 105 % of control in assay [7] (1.0E-06 M); 50 % of control in [8] (1.0E-05 M); 115 % of control in assay [8] (1.0E-06 M); 99 % of control in [9] (1.0E-05 M); 100 % of control in [9] (1.0E-06 M). The Residual activity in assay [10] (1.0E-05 M) is recorded as 72 % of control; in assay [10] (1.0E-06 M) it was 92 % of control.
